Assay results reported in PubChem BioAssay AID330 (DTP/NCI, 2004).
Values joined by “and” are separate entries in the source; they are usually repeats but may differ in a detail not shown here. Equal entries are not always repeated. Inconclusive results and toxic doses are left out.

System: P388 leukemia ip, CD2F1 mice, survival T/C
Experiment: NCI In Vivo Anticancer Drug Screen. Data for tumor model P388 Leukemia (intraperitoneal) in CD2F1 (CDF1) mice
Details: endpoint: median survival time, higher = longer survival
Procedure, shortened: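 Mice carrying the transplanted tumor received test compound or vehicle. Survival was recorded in each group, and the value is the treated-group measurement divided by that of the vehicle-treated control group.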

[1] = dose: 100.0 mg/kg/injection, schedule: Q04DX003 (ip), vehicle: saline with Tween-80
[2] = dose: 200.0 mg/kg/injection, schedule: Q04DX003 (ip), vehicle: saline with Tween-80
[3] = dose: 12.5 mg/kg/injection, schedule: Q01DX005 (ip), vehicle: saline
[4] = dose: 25.0 mg/kg/injection, schedule: Q01DX005 (ip), vehicle: saline
[5] = dose: 50.0 mg/kg/injection, schedule: Q01DX005 (ip), vehicle: saline
[6] = dose: 60.0 mg/kg/injection, schedule: Q01DX005 (ip), vehicle: saline with Tween-80
[7] = dose: 120.0 mg/kg/injection, schedule: Q01DX005 (ip), vehicle: saline with Tween-80
[8] = dose: 240.0 mg/kg/injection, schedule: Q01DX005 (ip), vehicle: saline with Tween-80
[9] = dose: 50.0 mg/kg/injection, schedule: Q01DX009 (ip), vehicle: saline + alcohol
[10] = dose: 100.0 mg/kg/injection, schedule: Q01DX009 (ip), vehicle: saline + alcohol
[11] = dose: 200.0 mg/kg/injection, schedule: Q01DX009 (ip), vehicle: saline + alcohol
[12] = dose: 60.0 mg/kg/injection, schedule: Q01DX005 (ip), vehicle: Klucel (hydroxypropylcellulose) (HPC)
[13] = dose: 120.0 mg/kg/injection, schedule: Q01DX005 (ip), vehicle: Klucel (hydroxypropylcellulose) (HPC)
[14] = dose: 240.0 mg/kg/injection, schedule: Q01DX005 (ip), vehicle: Klucel (hydroxypropylcellulose) (HPC)
[15] = dose: 100.0 mg/kg/injection, schedule: Q01DX009 (ip), vehicle: Klucel (hydroxypropylcellulose) (HPC)
[16] = dose: 200.0 mg/kg/injection, schedule: Q01DX009 (ip), vehicle: Klucel (hydroxypropylcellulose) (HPC)

Structure (SMILES): NC(N)=NC(N)=Nc1ccc2ccc3cccc4ccc1c2c34
- T/C [1]: 106 % of control
- T/C [2]: 111 % of control

Structure (SMILES): C=CCCn1nnc(-c2ccccc2)n1
- T/C (dose: 25.0 mg/kg/injection, schedule: Q04DX003 (ip), vehicle: saline with Tween-80): 102 % of control
- T/C (dose: 50.0 mg/kg/injection, schedule: Q04DX003 (ip), vehicle: saline with Tween-80): 96 % of control
- T/C [1]: 100 % of control
- T/C [2]: 104 % of control and 105 % of control
- T/C (dose: 400.0 mg/kg/injection, schedule: Q04DX003 (ip), vehicle: saline with Tween-80): 94 % of control

Structure (SMILES): CCC[CH2][Sn]1([CH2]CCC)[O]C(=O)CSC(=S)SCC(=O)[O]1
- T/C (dose: 1.56 mg/kg/injection, schedule: Q01DX009 (ip), vehicle: saline): 90 % of control
- T/C (dose: 3.12 mg/kg/injection, schedule: Q01DX009 (ip), vehicle: saline): 92 % of control
- T/C (dose: 6.25 mg/kg/injection, schedule: Q01DX009 (ip), vehicle: saline with Tween-80): 116 % of control
- T/C (dose: 6.25 mg/kg/injection, schedule: Q01DX009 (ip), vehicle: saline): 89 % of control

Structure (SMILES): C[N+]1(C[Si](C)(C)c2ccccc2)CCOCC1
- T/C [3]: 105 % of control
- T/C [4]: 103 % of control
- T/C [5]: 102 % of control and 104 % of control

Structure (SMILES): O=c1nnc(O)c2ccn(O)cc1-2
- T/C [6]: 99 % of control
- T/C [7]: 103 % of control
- T/C [8]: 99 % of control

Structure (SMILES): CN(C)CCOc1ccccc1NC1=C(Cl)C(=O)C(Nc2ccccc2OCCN(C)C)=C(Cl)C1=O
- T/C (dose: 3.12 mg/kg/injection, schedule: Q01DX005 (ip), vehicle: saline): 96 % of control and 97 % of control
- T/C (dose: 6.25 mg/kg/injection, schedule: Q01DX005 (ip), vehicle: saline): 105 % of control and 106 % of control and 98 % of control
- T/C [3]: 110 % of control and 114 % of control and 116 % of control
- T/C [4]: 105 % of control and 117 % of control and 121 % of control

Structure (SMILES): C/C=C1/CN2CCC34c5ccccc5N(C(C)=O)C3C(CO)C1CC24 (configuration not stated)
- T/C (dose: 11.25 mg/kg/injection, schedule: Q01DX009 (ip), vehicle: saline with Tween-80): 106 % of control
- T/C (dose: 22.5 mg/kg/injection, schedule: Q01DX009 (ip), vehicle: saline with Tween-80): 100 % of control
- T/C (dose: 45.0 mg/kg/injection, schedule: Q01DX009 (ip), vehicle: saline with Tween-80): 102 % of control
- T/C (dose: 90.0 mg/kg/injection, schedule: Q01DX009 (ip), vehicle: saline with Tween-80): 100 % of control

Structure (SMILES): CCOC(=O)Nc1cc2c(c(N)n1)N=C(c1ccc(OC)cc1)CN2
- T/C (dose: 1.5 mg/kg/injection, schedule: Q01DX009 (ip), vehicle: Klucel (hydroxypropylcellulose) (HPC)): 105 % of control
- T/C (dose: 6.25 mg/kg/injection, schedule: Q01DX001 (ip), vehicle: Klucel (hydroxypropylcellulose) (HPC)): 110 % of control
- T/C (dose: 6.25 mg/kg/injection, schedule: Q04DX003 (ip), vehicle: Klucel (hydroxypropylcellulose) (HPC)): 110 % of control
- T/C (dose: 12.5 mg/kg/injection, schedule: Q04DX003 (ip), vehicle: Klucel (hydroxypropylcellulose) (HPC)): 158 % of control
- T/C (dose: 25.0 mg/kg/injection, schedule: Q01DX001 (ip), vehicle: Klucel (hydroxypropylcellulose) (HPC)): 150 % of control
- T/C (dose: 25.0 mg/kg/injection, schedule: Q04DX003 (ip), vehicle: Klucel (hydroxypropylcellulose) (HPC)): 163 % of control

Structure (SMILES): O=C(c1ccccc1)N1CC1
- T/C [9]: 94 % of control
- T/C [10]: 97 % of control
- T/C [11]: 100 % of control
- T/C (dose: 400.0 mg/kg/injection, schedule: Q01DX009 (ip), vehicle: saline + alcohol): 116 % of control

Structure (SMILES): COc1ccc2c(c1)[nH]c1c(/C=C/c3ccc([N+](=O)[O-])cc3)nccc12
- T/C (dose: 30.0 mg/kg/injection, schedule: Q01DX005 (ip), vehicle: Klucel (hydroxypropylcellulose) (HPC)): 107 % of control
- T/C [12]: 103 % of control
- T/C [13]: 105 % of control
- T/C [14]: 90 % of control

Structure (SMILES): CCN(CC)C(=O)c1cccc2c1OCO2
- T/C [6]: 94 % of control
- T/C [7]: 98 % of control
- T/C [8]: 95 % of control

Structure (SMILES): c1ccc(CSc2nn[nH]n2)cc1
- T/C (dose: 100.0 mg/kg/injection, schedule: Q04DX003 (ip), vehicle: Klucel (hydroxypropylcellulose) (HPC)): 96 % of control
- T/C (dose: 200.0 mg/kg/injection, schedule: Q04DX003 (ip), vehicle: Klucel (hydroxypropylcellulose) (HPC)): 102 % of control
- T/C (dose: 400.0 mg/kg/injection, schedule: Q04DX003 (ip), vehicle: Klucel (hydroxypropylcellulose) (HPC)): 101 % of control

Structure (SMILES): CCO/C=C1\SC(=S)N(c2cccc(OC)c2)C1=O
- T/C (dose: 100.0 mg/kg/injection, schedule: Q01DX009 (ip), vehicle: saline with Tween-80): 118 % of control
- T/C (dose: 117.0 mg/kg/injection, schedule: Q04DX003 (ip), vehicle: saline with Tween-80): 113 % of control
- T/C (dose: 178.0 mg/kg/injection, schedule: Q04DX003 (ip), vehicle: saline with Tween-80): 118 % of control
- T/C (dose: 200.0 mg/kg/injection, schedule: Q01DX009 (ip), vehicle: saline with Tween-80): 118 % of control
- T/C (dose: 266.0 mg/kg/injection, schedule: Q04DX003 (ip), vehicle: saline with Tween-80): 109 % of control

Structure (SMILES): COc1ccc(NC(=S)Nc2ccccc2C(F)(F)F)c(OC)c1
- T/C (dose: 50.0 mg/kg/injection, schedule: Q01DX009 (ip), vehicle: Klucel (hydroxypropylcellulose) (HPC)): 99 % of control
- T/C [15]: 95 % of control
- T/C [16]: 94 % of control

Structure (SMILES): O=[N+]([O-])c1ccc(-c2ncc(-c3ccc(Br)cc3)o2)cc1
- T/C [12]: 108 % of control
- T/C [13]: 107 % of control
- T/C [14]: 110 % of control

Structure (SMILES): Oc1cc2c(cc1C(c1ccc3c(c1)OCO3)N1CCCC1)OCO2 (configuration not stated)
- T/C [12]: 109 % of control
- T/C [13]: 110 % of control
- T/C [14]: 112 % of control

Structure (SMILES): Cc1cc(C)n(C(=O)n2nc(C)cc2C)n1
- T/C [5]: 100 % of control
- T/C (dose: 100.0 mg/kg/injection, schedule: Q01DX005 (ip), vehicle: saline): 107 % of control
- T/C (dose: 200.0 mg/kg/injection, schedule: Q01DX005 (ip), vehicle: saline): 100 % of control

Structure (SMILES): CCOC(=O)C1(CC)C(=O)C=C(c2ccccc2)CC1c1ccccc1 (configuration not stated)
- T/C [15]: 99 % of control
- T/C [16]: 94 % of control
- T/C (dose: 400.0 mg/kg/injection, schedule: Q01DX009 (ip), vehicle: Klucel (hydroxypropylcellulose) (HPC)): 94 % of control

Structure (SMILES): C1=CC2C(O1)OC2c1ccc2ccccc2c1 (configuration not stated)
- T/C (dose: 7.5 mg/kg/injection, schedule: Q01DX005 (ip), vehicle: Klucel + Tween-80): 114 % of control
- T/C (dose: 15.0 mg/kg/injection, schedule: Q01DX005 (ip), vehicle: Klucel + Tween-80): 100 % of control and 97 % of control
- T/C (dose: 30.0 mg/kg/injection, schedule: Q01DX005 (ip), vehicle: Klucel + Tween-80): 89 % of control
- T/C (dose: 60.0 mg/kg/injection, schedule: Q01DX005 (ip), vehicle: Klucel + Tween-80): 89 % of control and 97 % of control

Structure (SMILES): CSC(=S)n1nc(-c2ccccc2)c(N=Nc2ccccc2[N+](=O)[O-])c1C
- T/C (dose: 100.0 mg/kg/injection, schedule: Q01DX001 (ip), vehicle: Klucel (hydroxypropylcellulose) (HPC)): 98 % of control
- T/C (dose: 200.0 mg/kg/injection, schedule: Q01DX001 (ip), vehicle: Klucel (hydroxypropylcellulose) (HPC)): 102 % of control
- T/C (dose: 400.0 mg/kg/injection, schedule: Q01DX001 (ip), vehicle: Klucel (hydroxypropylcellulose) (HPC)): 103 % of control

Structure (SMILES): O=C(O)c1ccc([N+](=O)[O-])cc1O.O=C(O)c1ccc([N+](=O)[O-])cc1O.[Cu]
- T/C (dose: 6.25 mg/kg/injection, schedule: Q01DX001 (ip), vehicle: saline with Tween-80): 100 % of control
- T/C (dose: 12.5 mg/kg/injection, schedule: Q01DX001 (ip), vehicle: saline with Tween-80): 103 % of control
- T/C (dose: 25.0 mg/kg/injection, schedule: Q01DX001 (ip), vehicle: saline with Tween-80): 97 % of control

Structure (SMILES): O=C(/C=C/c1ccc(OCc2ccccc2)cc1)c1cccc([N+](=O)[O-])c1
- T/C [9]: 100 % of control
- T/C [10]: 92 % of control
- T/C [11]: 89 % of control

Structure (SMILES): c1ccc(N2CCN(C(c3cccs3)N3CCN(c4ccccc4)CC3)CC2)cc1
- T/C [6]: 100 % of control
- T/C [7]: 99 % of control

Structure (SMILES): Nc1ncc2c(n1)Oc1cc3nc4c(=O)nc(N)nc-4oc3cc1N2
- T/C (dose: 50.0 mg/kg/injection, schedule: Q01DX005 (ip), vehicle: Klucel (hydroxypropylcellulose) (HPC)): 91 % of control
- T/C (dose: 100.0 mg/kg/injection, schedule: Q01DX005 (ip), vehicle: Klucel (hydroxypropylcellulose) (HPC)): 93 % of control
